In patent publication US4223041A, “Urea derivatives to treat anxiety and aggressivity” (Labaz, priority 1976, dated 1980):

Assays:
[1] = Action on the pentylenetetrazole-induced seizure (anticonvulsant activity); format: in vivo, mouse; conditions: Mus musculus, 3 h; 320 mg/kg oral, mice, 15 min before 125 mg/kg pentylenetetrazole; read-out: % of protection against death
Experimental: The purpose of this test which is carried out on mice is to determine whether the compounds of the invention, when given preventively by oral route, are capable at certain doses of protecting some of the animals against the epileptic seizure produced by a predetermined dose of pentylenetetrazole which would be 100% fatal in the absence of the compound.
The compound to be studied was administered fifteen minutes before an injection of 125 mg/kg of pentylenetetrazole and note was taken of the number of deaths occurring during the three hours following this injection. The results were expressed in percentage of protection of the animals against death at the dose studied.

[2] = Anxiolytic and antiaggressive properties and separation from sedation (general statements); conditions: in vivo
[3] = Action with respect to tremorine (cholinolytic properties); format: in vivo, mouse
Experimental: This test has been described by EVERETT (Nature, 1956, 177-238)
When injected into mice, tremorine produces peripheral cholinergic effects i.e. weeping, hypersalivation, sedation, diarrhea as well as central cholinergic effects i.e. tremors, akinesia.
Batches of 10 mice separated into individual cages, were given the compound to be studied, by oral route, 30 minutes before administration of an intraperitoneal dose of 100 mg/kg of tremorine.
Note was then taken in each batch of the percentage of animals presenting the various symptoms of tremorine-induced poisoning since at such a dose of tremorine 100% of the control animals are poisoned.
The results hereunder are expressed in percentage of mice protected against tremor at the dose of the compound of the invention which was administered: […]

With `CCCC(CCC)(CCC)NC(N)=O` [Compound A, 1-(1,1-Di-n-propyl-n-butyl)-urea] the responders at 320 mg/kg [1] was 50%, the “anxiolytic and antiaggressive activity (in words)” value [2] was “most outstanding anxiolytic and antiaggressive properties” and the “% of protection against tremor” value ([3]; 200 mg/kg oral, mice, 30 min before 100 mg/kg i.p. tremorine) was 0%. For the same compound, the “protection against central or peripheral cholinergic effects provoked by tremorine” value ([3]; 100, 300, 400 and 500 mg/kg oral) was “did not protect any animal”.
